According to patent US12599613B2, “Composition comprising dutasteride” (Chong Kun Dang Pharmaceutical Corp., priority 2018, dated 2026):

Experiment: Dissolution rate of pharmaceutical composition in vitro (Korean Pharmacopoeia Method I, basket)
Assay type: physicochemical
Conditions: 56 mg dutasteride, 900 mL 1% w/v sodium dodecyl sulfate, 37° C., 100 rpm
Protocol: A dissolution rate of the inventive compositions in vitro was identified through the following experiment. Example 32 was filled into a disposable syringe in such an amount that corresponds to 56 mg of dutasteride and then injected into a dissolution medium, and Comparative Example 1 was directly put into a rotating basket in such an amount that corresponds to 56 mg of dutasteride. This experiment was performed according to the dissolution test method I in the 10th revision of the Korean Pharmacopocia and the conditions for dissolution are as follows.
<Conditions for Dissolution of Pharmaceutical Composition>
• Dissolution method: Method I of the Korean Pharmacopoeia (Appratus I—Basket) • Dissolution medium: 900 mL of solution containing 1% w/v sodium dodecyl sulfate • Dissolution temperature: 37±0.5° C. • Rotation speed: 100 rpm • Test hour: 1, 3, 6, 12 and 24 hours
With regard to a concentration of dutasteride in a dissolution sample, a dissolution rate for 24 hours was analyzed with HPLC under the condition of Experimental Example 1 and the results thereof were shown in FIG. 2.

## C[C@]12C=CC(=O)N[C@@H]1CC[C@@H]1[C@@H]2CC[C@]2(C)[C@@H](C(=O)Nc3cc(C(F)(F)F)ccc3C(F)(F)F)CC[C@@H]12 [Comparative Example 1, dutasteride]
  state of dutasteride in the dissolution medium (dissolved / precipitated): a part of the drug only was dissolved into the dissolution medium
24 hours
  dissolution rate with an elapse of time: hardly increased with an elapse of time from one hour after
